Measurements published in US9499551B2, “Substituted pyrrolo[2,3-b]pyridines for treating cancer or inflammatory diseases” (Confluence Life Sciences, Inc., priority 2014, dated 2016).

Key:
TAK1-TAB1 = target: T1, TAK1-TAB1 (Homo sapiens, UniProt O43318); test: TAK1-TAB1 binding inhibitory potency (LanthaScreen competitive binding assay, kinase tracer-236); conditions: 10 nM TAK1-TAB1, 100 nM kinase tracer-236; read-out: TAK1-Tab Inhibition IC50
T1 sequence (O43318 with tags, fused parts or gaps limits assumed): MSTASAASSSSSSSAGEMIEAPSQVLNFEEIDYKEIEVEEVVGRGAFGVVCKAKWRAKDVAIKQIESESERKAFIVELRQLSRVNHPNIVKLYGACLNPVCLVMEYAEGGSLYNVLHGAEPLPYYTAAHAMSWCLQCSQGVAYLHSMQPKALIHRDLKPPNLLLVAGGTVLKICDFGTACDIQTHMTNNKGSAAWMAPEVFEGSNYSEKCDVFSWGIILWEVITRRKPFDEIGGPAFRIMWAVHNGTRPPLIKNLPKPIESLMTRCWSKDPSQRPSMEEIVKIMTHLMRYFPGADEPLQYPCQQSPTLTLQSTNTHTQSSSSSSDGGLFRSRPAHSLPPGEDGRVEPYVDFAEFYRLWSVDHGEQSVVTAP
In short: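 Compounds were tested for TAK1-TAB1 binding in a 384-well LanthaScreen competitive FRET assay. TAK1-TAB1 (10 nM) and Eu-anti-his antibody (2 nM) were preincubated with compound for two hours before adding 100 nM Alexa Fluor 647 kinase tracer-236. The buffer was 20 mM HEPES pH 7.5, 10 mM MgCl2, 0.01% BSA, 0.0005% Tween-20 and 2% DMSO. IC50 came from 4-parameter logistic fits of emission ratio over an 11-point series from 20 μM to 0.34 nM.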

[1] = test system: IL-6 Production in Human Peripheral Blood Mononuclear Cells (PBMC); test: LPS stimulated IL-6 production in PBMC cells; format: cell-based; conditions: read-out: IL-6 Production Inhibition IC50
Method: LPS Stimulated IL-6 Production in PBMC Cells:
Lipopolysaccharide (LPS) stimulated IL-6 Production in Human Peripheral Blood Mononuclear Cells (PBMC): The cellular efficacy of compound candidates is determined using peripheral blood mononuclear cells purified from human whole blood, based upon the methods of Burnette et al. (2009) Pharmacology, 84:42-60. PBMC produce a number of cytokines (IL6, IL8, IL1β and TNFα) in response to stimulation with LPS. To induce the production of inflammatory mediators, PBMC are plated at a final concentration of 2×10^5 cells/well in a 96 well flat bottom plate in DMEM medium supplemented with 10% fetal bovine serum, 100 units/ml penicillin and 100 μg/ml streptomycin (Gibco BRL Life Technologies). Cells are treated with or without inhibitors for 1-3 hrs then stimulated with 100 ng/ml LPS (serotype 011:B4, Sigma) for an additional 3 hrs at 37° C. with 5% CO2. The supernatants are removed and stored at −20° C. until they are to be assayed. The levels of inflammatory mediators are determined using commercial MSD cytokine kits (Meso Scale Discovery) as per the manufacturer's instructions. Standard curves are based on 7 steps of 4× serial dilutions, with a wide dynamic range of 10000 pg/ml to 2.4 pg/ml, and a blank. Lower limit of detection (LLOD) is calculated at the commonly used 3× the standard deviation of the blank.

| IC50 (TAK1-TAB1) [nM] | Structure (SMILES) | IC50 [1] [nM] |
| --- | --- | --- |
| ≤ 1000 | CC(=O)O[C@@H](C)CNC(=O)c1ccc(-c2cnc3[nH]cc(/C=C/C(N)=O)c3c2)cc1 [Example 293, (S,E)-1-(4-(3-(3-amino-3-oxoprop-1-en-1-yl)-1H-pyrrolo[2,3-b]pyridin-5-yl)benzamido) propan-2-yl acetate] | > 1000 |
| ≤ 1000 | CC(C)(C)C(=O)N1CCN(c2cnc3[nH]cc(/C=C/C(N)=O)c3c2)CC1 [Example 264, (E)-3-(5-(4-pivaloylpiperazin-1-yl)-1H-pyrrolo[2,3-b]pyridin-3-yl)acrylamide] | ≤ 1000 |
| ≤ 1000 | CC(C)(O)COc1ccc(-c2cnc3[nH]cc(/C=C/C(N)=O)c3c2)cc1 [Example 32, (E)-3-(5-(4-(2-hydroxy-2-methylpropoxy)phenyl)-1H-pyrrolo[2,3-b]pyridin-3-yl)acrylamide] | ≤ 1000 |
| ≤ 1000 | C[C@@H](O)C(=O)N1CCN(c2cnc3[nH]cc(/C=C/C(N)=O)c3c2)CC1 [Example 277, (R,E)-3-(5-(4-(2-hydroxypropanoyl)piperazin-1-yl)-1H-pyrrolo[2,3-b]pyridine-3-yl)acrylamide] | > 1000 |
| ≤ 1000 | Cc1cc(-c2cnc3[nH]cc(/C=C/C(N)=O)c3c2)cc(C(C)(C)C)c1 [Example 256, (E)-3-(5-(3-(tert-butyl)-5-methylphenyl)-1H-pyrrolo[2,3-b]pyridin-3-yl)acrylamide] | ≤ 1000 |
| ≤ 1000 | CCOCCN1CCN(c2cnc3[nH]cc(/C=C/C(N)=O)c3c2)CC1 [Example 271, (E)-3-(5-(4-(2-ethoxyethyl)piperazin-1-yl)-1H-pyrrolo[2,3-b]pyridin-3-yl)acrylamide] | ≤ 1000 |
| ≤ 1000 | NC(=O)/C=C/c1c[nH]c2ncc(-c3cccnc3)cc12 [Example 13, 3-(5-Pyridin-3-yl-1H-pyrrolo[2,3-b]pyridin-3-yl)-acrylamide] | ≤ 1000 |
| ≤ 1000 | CC1CCN(C(=O)c2ccc(-c3cnc4[nH]cc(/C=C/C(N)=O)c4c3)cn2)CC1 [Example 265, (E)-3-(5-(6-(4-methylpiperidine-1-carbonyl)pyridin-3-yl)-1H-pyrrolo[2,3-b]pyridin-3-yl)acrylamide] | > 1000 |
| ≤ 1000 | CC(C)(O)COc1ccc(-c2cnc3[nH]cc(/C=C/C(N)=O)c3c2)cn1 [Example 291, (E)-3-(5-(6-(2-hydroxy-2-methylpropoxy)pyridin-3-yl)-1H-pyrrolo[2,3-b]pyridin-3-yl)acrylamide] | ≤ 1000 |
| ≤ 1000 | CC(C)Oc1ccnc2[nH]cc(/C=C/C(N)=O)c12 [Example 7, (E)-3-(4-Isopropoxy-1H-pyrrolo[2,3-b]pyridin-3-yl)acrylamide] | ≤ 1000 |
| ≤ 1000 | NC(=O)/C=C/c1c[nH]c2ncc(N3CCN(C(=O)C4CCCC4)CC3)cc12 [Example 278, (E)-3-(5-(4-(cyclopentane-carbonyl)piperazin-1-yl)-1H-pyrrolo[2,3-b]pyridin-3-yl)acrylamide] | > 1000 |
| ≤ 1000 | NC(=O)/C=C/c1c[nH]c2ncc(-c3ccc(C(=O)NC4CC4)cc3)cc12 [Example 270, (E)-4-(3-(3-amino-3-oxoprop-1-en-1-yl)-1H-pyrrolo[2,3-b]pyridin-5-yl)-N-cyclopropyl-benzamide] | > 1000 |
| ≤ 1000 | CC(C)(C)c1cc(-c2cnc3[nH]cc(/C=C/C(N)=O)c3c2)cc(C(C)(C)C)c1 [Example 258, (E)-3-(5-(3,5-di-tert-butylphenyl)-1H-pyrrolo[2,3-b]pyridin-3-yl)acrylamide] | ≤ 1000 |
| ≤ 1000 | CC(O)c1cncc(-c2cnc3[nH]cc(/C=C/C(N)=O)c3c2)c1 (stereo not drawn) [Example 299, (E)-3-(5-(5-(1-hydroxyethyl)pyridin-3-yl)-1H-pyrrolo[2,3-b]pyridin-3-yl)acrylamide] | > 1000 |
| ≤ 1000 | CC(=O)c1cccc(-c2cnc3[nH]cc(/C=C/C(N)=O)c3c2)c1 [Example 244, (E)-3-(5-(3-acetylphenyl)-1H-pyrrolo[2,3-b]pyridin-3-yl)acrylamide] | ≤ 1000 |
